{"source": "ChEMBL document CHEMBL1132880", "about": "“Novel arylpiperazines as selective alpha1-adrenergic receptor antagonists” (Bioorg Med Chem Lett, 2000)", "key": {"[1]": {"target": "T1, Alpha-1D adrenergic receptor (Homo sapiens, UniProt P25100)", "T1 sequence (P25100 whole entry)": "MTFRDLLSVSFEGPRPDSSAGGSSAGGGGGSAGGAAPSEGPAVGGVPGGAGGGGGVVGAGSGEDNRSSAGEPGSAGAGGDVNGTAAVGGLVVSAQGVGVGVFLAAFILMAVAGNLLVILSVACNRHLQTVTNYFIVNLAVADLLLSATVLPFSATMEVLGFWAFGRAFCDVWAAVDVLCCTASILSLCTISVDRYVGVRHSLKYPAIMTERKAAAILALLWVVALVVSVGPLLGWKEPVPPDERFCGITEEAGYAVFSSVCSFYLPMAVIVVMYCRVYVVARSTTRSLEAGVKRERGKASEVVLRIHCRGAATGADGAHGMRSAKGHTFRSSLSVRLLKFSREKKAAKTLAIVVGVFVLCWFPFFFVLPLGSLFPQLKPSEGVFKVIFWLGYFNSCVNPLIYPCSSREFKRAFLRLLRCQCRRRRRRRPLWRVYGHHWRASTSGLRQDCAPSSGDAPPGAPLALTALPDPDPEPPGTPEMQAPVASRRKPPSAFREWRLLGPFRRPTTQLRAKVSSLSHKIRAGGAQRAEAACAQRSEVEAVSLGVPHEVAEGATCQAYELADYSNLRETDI", "assay": "Binding affinity for human Alpha-1D adrenergic receptor expressed in COS cell membranes"}, "[2]": {"target": "T2, Alpha-1B adrenergic receptor (Homo sapiens, UniProt P35368)", "T2 sequence (P35368 whole entry)": "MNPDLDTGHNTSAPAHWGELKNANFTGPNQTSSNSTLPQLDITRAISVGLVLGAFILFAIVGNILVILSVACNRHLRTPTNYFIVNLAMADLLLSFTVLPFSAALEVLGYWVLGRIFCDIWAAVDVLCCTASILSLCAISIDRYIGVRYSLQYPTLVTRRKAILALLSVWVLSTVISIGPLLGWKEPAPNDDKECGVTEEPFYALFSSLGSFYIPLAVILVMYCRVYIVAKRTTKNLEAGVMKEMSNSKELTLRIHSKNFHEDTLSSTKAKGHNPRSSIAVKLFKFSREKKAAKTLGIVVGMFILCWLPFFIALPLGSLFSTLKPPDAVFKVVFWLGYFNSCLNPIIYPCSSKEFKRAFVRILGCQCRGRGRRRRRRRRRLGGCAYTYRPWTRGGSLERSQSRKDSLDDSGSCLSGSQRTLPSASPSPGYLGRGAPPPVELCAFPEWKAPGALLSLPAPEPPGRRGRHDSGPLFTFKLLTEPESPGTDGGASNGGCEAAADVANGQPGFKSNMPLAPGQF", "assay": "Binding affinity for human Alpha-1B adrenergic receptor expressed in COS cell membranes"}, "[3]": {"target": "T3, Alpha-1A adrenergic receptor (Homo sapiens, UniProt P35348)", "T3 sequence (P35348 whole entry)": "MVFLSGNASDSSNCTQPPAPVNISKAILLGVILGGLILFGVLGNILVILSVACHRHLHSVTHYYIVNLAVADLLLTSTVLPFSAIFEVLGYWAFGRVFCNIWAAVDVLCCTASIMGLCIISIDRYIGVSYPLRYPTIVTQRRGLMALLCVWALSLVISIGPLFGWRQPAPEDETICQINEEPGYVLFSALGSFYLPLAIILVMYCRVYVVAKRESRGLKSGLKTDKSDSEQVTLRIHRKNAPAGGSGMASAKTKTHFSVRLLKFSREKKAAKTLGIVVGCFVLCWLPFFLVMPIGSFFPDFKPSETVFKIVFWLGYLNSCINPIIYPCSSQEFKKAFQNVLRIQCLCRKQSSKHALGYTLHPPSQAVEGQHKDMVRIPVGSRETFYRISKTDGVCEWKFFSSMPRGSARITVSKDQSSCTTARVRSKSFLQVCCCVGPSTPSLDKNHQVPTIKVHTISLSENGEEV", "assay": "Binding affinity for human Alpha-1A adrenergic receptor expressed in COS cell membranes"}, "[4]": {"target": "Adrenergic receptors; alpha-1 A & B (Homo sapiens) (UniProt P35348+P35368)", "assay": "Relative binding affinity for human adrenergic receptor alpha 1b and alpha 1a", "type": "protein assay"}, "[5]": {"target": "Alpha adrenergic receptor (1a and 1d) (Homo sapiens) (UniProt P35348+P25100)", "assay": "Relative binding affinity for human adrenergic receptor alpha 1d and 1a", "type": "protein assay"}, "Rattus norvegicus": {"organism": "Rattus norvegicus", "assay": "pA2 data of Compound was evaluated for tissue contractions in isolated rat prostatic tissue strips.", "type": "functional", "details": "read-out: pA2 (converted)"}}, "data": [{"smiles": "CC(C)Oc1ccccc1N1CCN(CCN(C)C(=O)CN2CCCCC2=O)CC1", "values": [{"measurement": "Ki", "setting": "[1]", "value": 650, "unit": "nM"}, {"measurement": "Ki", "setting": "[2]", "value": 10000, "unit": "nM"}, {"measurement": "Ki", "setting": "[3]", "value": 53, "unit": "nM"}, {"measurement": "Ratio", "setting": "[4]", "value": 187}, {"measurement": "Ratio", "setting": "[5]", "value": 12}]}, {"smiles": "CC(C)Oc1ccccc1N1CCN(C/C=C/C(=O)CN2CCCCC2=O)CC1", "values": [{"measurement": "Ki", "setting": "[1]", "value": 602, "unit": "nM"}, {"measurement": "Ki", "setting": "[2]", "value": 5320, "unit": "nM"}, {"measurement": "Ki", "setting": "[3]", "value": 18, "unit": "nM"}, {"measurement": "Ratio", "setting": "[4]", "value": 295}, {"measurement": "Ratio", "setting": "[5]", "value": 33}]}, {"smiles": "CC(C)Oc1ccccc1N1CCN(CCNC(=O)CN2CCCCCC2=O)CC1", "note": "[RWJ-68157]", "values": [{"measurement": "Ki", "setting": "[1]", "value": 505, "unit": "nM"}, {"measurement": "Ki", "setting": "[2]", "value": 3540, "unit": "nM"}, {"measurement": "Ki", "setting": "[3]", "value": 18, "unit": "nM"}, {"measurement": "Kb", "setting": "Rattus norvegicus", "value": 204, "unit": "nM"}, {"measurement": "Ratio", "setting": "[4]", "value": 196}, {"measurement": "Ratio", "setting": "[5]", "value": 28}]}, {"smiles": "CC(C)Oc1ccccc1N1CCN(CCNC(=O)CN2CCCCC2=O)CC1", "note": "[RWJ-38063]", "values": [{"measurement": "Ki", "setting": "[1]", "value": 372, "unit": "nM"}, {"measurement": "Ki", "setting": "[2]", "value": 46100, "unit": "nM"}, {"measurement": "Ki", "setting": "[3]", "value": 8.7, "unit": "nM"}, {"measurement": "Kb", "setting": "Rattus norvegicus", "value": 31.6, "unit": "nM"}, {"measurement": "Ratio", "setting": "[4]", "value": 5300}, {"measurement": "Ratio", "setting": "[5]", "value": 43}]}, {"smiles": "O=C(CN1CCCCC1=O)NCCN1CCN(c2ccc(F)cc2OCC(F)(F)F)CC1", "values": [{"measurement": "Ki", "setting": "[1]", "value": 5350, "unit": "nM"}, {"measurement": "Ki", "setting": "[2]", "value": 10000, "unit": "nM"}, {"measurement": "Ki", "setting": "[3]", "value": 129, "unit": "nM"}, {"measurement": "Ratio", "setting": "[4]", "value": 77}, {"measurement": "Ratio", "setting": "[5]", "value": 41}]}, {"smiles": "CC(C)Oc1ccccc1N1CCN(CC(=O)CC(=O)CN2CCCCC2=O)CC1", "values": [{"measurement": "Ki", "setting": "[1]", "value": 6040, "unit": "nM"}, {"measurement": "Ki", "setting": "[2]", "value": 10000, "unit": "nM"}, {"measurement": "Ki", "setting": "[3]", "value": 417, "unit": "nM"}, {"measurement": "Ratio", "setting": "[4]", "value": 24}, {"measurement": "Ratio", "setting": "[5]", "value": 14}]}, {"smiles": "COc1ccccc1N1CCN(CCCNC(=O)CN2CCCCC2=O)CC1", "values": [{"measurement": "Ki", "setting": "[1]", "value": 10000, "unit": "nM"}, {"measurement": "Ki", "setting": "[2]", "value": 10000, "unit": "nM"}, {"measurement": "Ki", "setting": "[3]", "value": 98, "unit": "nM"}, {"measurement": "Ratio", "setting": "[4]", "value": 102}, {"measurement": "Ratio", "setting": "[5]", "value": 102}]}, {"smiles": "CCOC(=O)C1CCC(=O)N1CC(=O)NCCN1CCN(c2ccccc2OC(C)C)CC1", "note": "(stereo not drawn)", "values": [{"measurement": "Ki", "setting": "[1]", "value": 260, "unit": "nM"}, {"measurement": "Ki", "setting": "[2]", "value": 26300, "unit": "nM"}, {"measurement": "Ki", "setting": "[3]", "value": 20, "unit": "nM"}, {"measurement": "Kb", "setting": "Rattus norvegicus", "value": 16.2, "unit": "nM"}, {"measurement": "Ratio", "setting": "[4]", "value": 1320}, {"measurement": "Ratio", "setting": "[5]", "value": 13}]}, {"smiles": "CC(C)Oc1ccccc1N1CCN(CC(O)CC(=O)CN2CCCCC2=O)CC1", "note": "(stereo not drawn)", "values": [{"measurement": "Ki", "setting": "[1]", "value": 253, "unit": "nM"}, {"measurement": "Ki", "setting": "[2]", "value": 10000, "unit": "nM"}, {"measurement": "Ki", "setting": "[3]", "value": 28, "unit": "nM"}, {"measurement": "Ratio", "setting": "[4]", "value": 556}, {"measurement": "Ratio", "setting": "[5]", "value": 9}]}, {"smiles": "CC(C)Oc1ccccc1N1CCN(CCCNC(=O)CN2CCCCC2=O)CC1", "note": "[RWJ-69736]", "values": [{"measurement": "Ki", "setting": "[1]", "value": 80, "unit": "nM"}, {"measurement": "Ki", "setting": "[2]", "value": 10000, "unit": "nM"}, {"measurement": "Ki", "setting": "[3]", "value": 0.66, "unit": "nM"}, {"measurement": "Ratio", "setting": "[4]", "value": 15200}, {"measurement": "Ratio", "setting": "[5]", "value": 121}]}, {"smiles": "CC(C)Oc1ccccc1N1CCN(CCOC(=O)CN2CCCCC2=O)CC1", "values": [{"measurement": "Ki", "setting": "[1]", "value": 108, "unit": "nM"}, {"measurement": "Ki", "setting": "[2]", "value": 2240, "unit": "nM"}, {"measurement": "Ki", "setting": "[3]", "value": 38, "unit": "nM"}, {"measurement": "Ratio", "setting": "[4]", "value": 59}, {"measurement": "Ratio", "setting": "[5]", "value": 3}]}, {"smiles": "CC(C)Oc1cc(F)ccc1N1CCN(CCNC(=O)CN2CCCCC2=O)CC1", "values": [{"measurement": "Ki", "setting": "[1]", "value": 4500, "unit": "nM"}, {"measurement": "Ki", "setting": "[2]", "value": 10000, "unit": "nM"}, {"measurement": "Ki", "setting": "[3]", "value": 83, "unit": "nM"}, {"measurement": "Ratio", "setting": "[4]", "value": 120}, {"measurement": "Ratio", "setting": "[5]", "value": 54}]}]}
